{"source": "PubChem BioAssay (NCI)", "assay_in_all_cases": "DTP human tumour cell line panel, 48 h", "key": {"[1]": {"system": "NCI-H23 lung"}, "[2]": {"system": "NCI-H460 lung"}, "[3]": {"system": "NCI-H522 lung"}, "[4]": {"system": "NCI/ADR-RES ovarian"}, "[5]": {"system": "OVCAR-3 ovarian"}, "[6]": {"system": "OVCAR-4 ovarian"}, "[7]": {"system": "OVCAR-5 ovarian"}, "[8]": {"system": "OVCAR-8 ovarian"}, "[9]": {"system": "PC-3 prostate"}, "[10]": {"system": "RPMI-8226 leukemia"}, "[11]": {"system": "RXF 393 renal"}, "[12]": {"system": "SF-268 CNS"}, "[13]": {"system": "SF-295 CNS"}, "[14]": {"system": "SF-539 CNS"}, "[15]": {"system": "SK-MEL-2 melanoma"}, "[16]": {"system": "SK-MEL-28 melanoma"}, "[17]": {"system": "SK-MEL-5 melanoma"}, "[18]": {"system": "SK-OV-3 ovarian"}, "[19]": {"system": "SN12C renal"}, "[20]": {"system": "SNB-19 CNS"}, "[21]": {"system": "SNB-75 CNS"}, "[22]": {"system": "SR leukemia"}, "[23]": {"system": "SW-620 colon"}, "[24]": {"system": "T-47D breast"}, "[25]": {"system": "TK-10 renal"}, "[26]": {"system": "U251 CNS"}, "[27]": {"system": "UACC-257 melanoma"}, "[28]": {"system": "UACC-62 melanoma"}, "[29]": {"system": "UO-31 renal"}}, "note": "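Five compound concentrations were applied to cells in 96-well plates for 48 hours; endpoints were derived by simple linear interpolation of the resulting dose-response curve. GI50 marks 50% less growth. TGI: total growth inhibition.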"}
{"molecule": "CCOC(=O)C(Cc1ccc(CCCC(=O)NCCC(=O)Nc2ccc3nc(C)sc3c2)cc1)C(=O)OCC", "values": [{"measurement": "GI50", "setting": "[1]", "result": 28.9, "unit": "µM"}, {"measurement": "TGI", "setting": "[1]", "result": "> 93.7", "unit": "µM"}, {"measurement": "GI50", "setting": "[2]", "result": "> 62.4", "unit": "µM"}, {"measurement": "TGI", "setting": "[2]", "result": "> 100", "unit": "µM"}, {"measurement": "GI50", "setting": "[3]", "result": 33.1, "unit": "µM"}, {"measurement": "TGI", "setting": "[3]", "result": "> 100", "unit": "µM"}, {"measurement": "GI50", "setting": "[4]", "result": 24.6, "unit": "µM"}, {"measurement": "TGI", "setting": "[4]", "result": 69.1, "unit": "µM"}, {"measurement": "GI50", "setting": "[5]", "result": 54.9, "unit": "µM"}, {"measurement": "TGI", "setting": "[5]", "result": "> 100", "unit": "µM"}, {"measurement": "GI50", "setting": "[6]", "result": 38.1, "unit": "µM"}, {"measurement": "TGI", "setting": "[6]", "result": "> 100", "unit": "µM"}, {"measurement": "GI50", "setting": "[7]", "result": "> 100", "unit": "µM"}, {"measurement": "TGI", "setting": "[7]", "result": "> 100", "unit": "µM"}, {"measurement": "GI50", "setting": "[8]", "result": 20.1, "unit": "µM"}, {"measurement": "TGI", "setting": "[8]", "result": 42.1, "unit": "µM"}, {"measurement": "GI50", "setting": "[9]", "result": 24.3, "unit": "µM"}, {"measurement": "TGI", "setting": "[9]", "result": "> 70.7", "unit": "µM"}, {"measurement": "GI50", "setting": "[10]", "result": 21.1, "unit": "µM"}, {"measurement": "TGI", "setting": "[10]", "result": 53.4, "unit": "µM"}, {"measurement": "GI50", "setting": "[11]", "result": 36.4, "unit": "µM"}, {"measurement": "TGI", "setting": "[11]", "result": "> 100", "unit": "µM"}, {"measurement": "GI50", "setting": "[12]", "result": "> 78", "unit": "µM"}, {"measurement": "TGI", "setting": "[12]", "result": "> 100", "unit": "µM"}, {"measurement": "GI50", "setting": "[13]", "result": 49.4, "unit": "µM"}, {"measurement": "TGI", "setting": "[13]", "result": "> 100", "unit": "µM"}, {"measurement": "GI50", "setting": "[14]", "result": 42.5, "unit": "µM"}, {"measurement": "TGI", "setting": "[14]", "result": "> 82.6", "unit": "µM"}, {"measurement": "GI50", "setting": "[15]", "result": 33, "unit": "µM"}, {"measurement": "TGI", "setting": "[15]", "result": "> 62", "unit": "µM"}, {"measurement": "GI50", "setting": "[16]", "result": 28.7, "unit": "µM"}, {"measurement": "TGI", "setting": "[16]", "result": "> 96.7", "unit": "µM"}, {"measurement": "GI50", "setting": "[17]", "result": 15.4, "unit": "µM"}, {"measurement": "TGI", "setting": "[17]", "result": 29.2, "unit": "µM"}, {"measurement": "GI50", "setting": "[18]", "result": "> 100", "unit": "µM"}, {"measurement": "TGI", "setting": "[18]", "result": "> 100", "unit": "µM"}, {"measurement": "GI50", "setting": "[19]", "result": 31.4, "unit": "µM"}, {"measurement": "TGI", "setting": "[19]", "result": "> 100", "unit": "µM"}, {"measurement": "GI50", "setting": "[20]", "result": "> 100", "unit": "µM"}, {"measurement": "TGI", "setting": "[20]", "result": "> 100", "unit": "µM"}, {"measurement": "GI50", "setting": "[21]", "result": "> 52.1", "unit": "µM"}, {"measurement": "TGI", "setting": "[21]", "result": "> 100", "unit": "µM"}, {"measurement": "GI50", "setting": "[22]", "result": 50.8, "unit": "µM"}, {"measurement": "TGI", "setting": "[22]", "result": "> 100", "unit": "µM"}, {"measurement": "GI50", "setting": "[23]", "result": "> 93.2", "unit": "µM"}, {"measurement": "TGI", "setting": "[23]", "result": "> 100", "unit": "µM"}, {"measurement": "GI50", "setting": "[24]", "result": 19.7, "unit": "µM"}, {"measurement": "TGI", "setting": "[24]", "result": 74.1, "unit": "µM"}, {"measurement": "GI50", "setting": "[25]", "result": "> 100", "unit": "µM"}, {"measurement": "TGI", "setting": "[25]", "result": "> 100", "unit": "µM"}, {"measurement": "GI50", "setting": "[26]", "result": "> 81.4", "unit": "µM"}, {"measurement": "TGI", "setting": "[26]", "result": "> 100", "unit": "µM"}, {"measurement": "GI50", "setting": "[27]", "result": 34.7, "unit": "µM"}, {"measurement": "TGI", "setting": "[27]", "result": "> 87.1", "unit": "µM"}, {"measurement": "GI50", "setting": "[28]", "result": 26.2, "unit": "µM"}, {"measurement": "TGI", "setting": "[28]", "result": "> 69.5", "unit": "µM"}, {"measurement": "GI50", "setting": "[29]", "result": 26.9, "unit": "µM"}, {"measurement": "TGI", "setting": "[29]", "result": "> 76.8", "unit": "µM"}]}
